Test results as given in patent EP0595557A1, “New substituted azetidinones as anti-inflammatory and antidegenerative agents” (MERCK & CO. INC., priority 1992, dated 1994).

Target: T1, Human Polymorphonuclear Leukocyte Elastase (Homo sapiens, UniProt P08246)
T1 construct: Crude extract of human polymorphonuclear leukocytes (PMN) containing elastase activity; from tissue; host or cells: human polymorphonuclear leukocytes (crude extract)
T1 sequence (P08246 30-267): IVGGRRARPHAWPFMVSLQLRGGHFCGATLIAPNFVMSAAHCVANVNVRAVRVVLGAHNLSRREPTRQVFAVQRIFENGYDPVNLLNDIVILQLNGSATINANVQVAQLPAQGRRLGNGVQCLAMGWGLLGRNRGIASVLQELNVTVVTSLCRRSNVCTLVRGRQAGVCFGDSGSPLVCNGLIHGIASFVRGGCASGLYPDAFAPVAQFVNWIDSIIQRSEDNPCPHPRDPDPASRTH
Assay: Enzyme assay for inhibition of human polymorphonuclear leukocyte elastase via hydrolysis of Boc-AAPAN or Boc-AAPVN
Assay type: biochemical
Conditions: expressed to the nearest thousand; for kinact/KI: pH 7.5, second order rate constant for inactivation of the enzyme, read-out: Kobs/[I]
Summary of the method: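 Crude human PMN extract as enzyme source, with 0.2 mM Boc-AAPAN in 0.05M TES buffer pH 7.5. Inhibitors in DMSO were added to substrate before the extract, and rate was followed as ΔOD/min at 410 mµ. Values are kobs/I, the second-order inactivation rate constant (per mole per second).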

kinact/KI [M⁻¹ s⁻¹] | Structure (SMILES) | Kobs/[I] (second order rate constant for inactivation of the enzyme, pH 7.5)
3.32e+06 | CCC[C@@H](NC(=O)N1C(=O)C(CC)(CC)[C@@H]1Oc1ccc(C(=O)N(C)CCN(C)C)cc1)c1ccc2c(c1)OCO2 [Compound 260] | 
3.21e+06 | CCC[C@@H](NC(=O)N1C(=O)C(CC)(CC)[C@@H]1Oc1ccc(C(=O)N(CC)CC)cc1)c1ccc2c(c1)OCO2 [Compound 261] | 
3.12e+06 | CCCCN(C)C(=O)c1ccc(O[C@@H]2N(C(=O)N[C@H](CCC)c3ccc4c(c3)OCO4)C(=O)C2(CC)CC)cc1 [Compound 262] | 
3.8e+06 | CCC[C@@H](NC(=O)N1C(=O)C(CC)(CC)[C@@H]1Oc1ccc(C(=O)N2CCN(C)CC2)cc1)c1ccc2c(c1)OCO2 [Compound 263, [S-(R*,S*)]-2-[4-[[(4-Methyl)piperazin-1-yl]carbonyl]phenoxy]-((3,3-diethyl-N-[1-(3,4-methylenedioxyphenyl)butyl]-4-oxo-1-azetidinecarboxamide] | 
3.43e+06 | CCC[C@@H](NC(=O)N1C(=O)C(CC)(CC)[C@@H]1Oc1ccc(C(=O)N(C)CCN(C)Cc2ccccc2)cc1)c1ccc2c(c1)OCO2 [Compound 264] | 
4.5e+06 | CCC[C@@H](NC(=O)N1C(=O)C(CC)(CC)[C@@H]1Oc1ccc(C(=O)N2CCN(C3CC3)CC2)cc1)c1ccc2c(c1)OCO2 [Compound 265, [S-(R*,S*)]-2-[4-[[(4-Cyclopropyl)piperazin-1-yl]carbonyl]phenoxy]-((3,3-diethyl-N-[1-(3,4-methylenedioxyphenyl)butyl]-4-oxo-1-azetidinecarboxamide] | 
3.25e+06 | CCC[C@@H](NC(=O)N1C(=O)C(CC)(CC)[C@@H]1Oc1ccc(C(=O)N2CCNCC2)cc1)c1ccc2c(c1)OCO2 [Compound 265a, [S-(R*,S*)]-2-[4-[[(4-Piperazin-1-yl)carbonyl]phenoxy] -((3,3-diethyl-N-[1-(3,4-methylenedioxyphenyl)butyl]-4-oxo-1-azetidinecarboxamide] | 
4.8e+06 | CCC[C@@H](NC(=O)N1C(=O)C(CC)(CC)[C@@H]1Oc1ccc(C(=O)N2CCN(CCO)CC2)cc1)c1ccc2c(c1)OCO2 [Compound 265c, [S-(R*,5*)]-2-[4-[[(4-Hydroxyethyl)piperazin-1-yl]carbonyl]phenoxy]-((3,3-diethyl-N-[1-(3,4-methylenedioxyphenyl)butyl]-4-oxo-1-azetidinecarboxamide] | 
3.7e+06 | CCC[C@@H](NC(=O)N1C(=O)C(CC)(CC)[C@@H]1Oc1ccc(C(=O)N2CCOCC2)cc1)c1ccc2c(c1)OCO2 [Compound 265d] | 
169000 | CCC[C@@H](NC(=O)N1C(=O)C(CC)(CC)[C@@H]1Oc1ccc(CC(=O)N2CCOCC2)cc1)c1cccc(C(=O)N2CCOCC2)c1 [Compound 266] | 
334000 | CCC[C@@H](NC(=O)N1C(=O)C(CC)(CC)[C@@H]1Oc1ccc(CC(=O)N(CC)CC)cc1)c1cccc(C(=O)N2CCOCC2)c1 [Compound 267] | 
142000 | CCC[C@@H](NC(=O)N1C(=O)C(CC)(CC)[C@@H]1Oc1ccc(CC(=O)N(C)CCN(C)C)cc1)c1cccc(C(=O)N2CCOCC2)c1 [Compound 268] | 
637000 | CCC[C@@H](NC(=O)N1C(=O)C(CC)(CC)[C@@H]1Oc1ccc(CC(N)=O)cc1)c1ccc(C)c(C(=O)N2CCOCC2)c1 [Compound 269] | 
740000 | CCC[C@@H](NC(=O)N1C(=O)C(CC)(CC)[C@@H]1Oc1ccc(CC(=O)N(CC)CC)cc1)c1ccc(C)c(C(=O)N2CCOCC2)c1 [Compound 270] | 
826000 | CCC[C@@H](NC(=O)N1C(=O)C(CC)(CC)[C@@H]1Oc1ccc(CC(=O)N(CCC)CCC)cc1)c1ccc(C)c(C(=O)N2CCOCC2)c1 [Compound 271] | 
2.42e+06 | CCC[C@@H](NC(=O)N1C(=O)C(CC)(CC)[C@@H]1Oc1ccc(C(=O)N(C)CCN(C)C)cc1)c1ccc(CC)c(C(=O)N2CCOCC2)c1 [Compound 272] | 
3.26e+06 | CCCCN(C)C(=O)c1ccc(O[C@@H]2N(C(=O)N[C@H](CCC)c3ccc(CC)c(C(=O)N4CCOCC4)c3)C(=O)C2(CC)CC)cc1 [Compound 273] | 
430000 | CCC[C@@H](NC(=O)N1C(=O)C(CC)(CC)[C@@H]1Oc1ccc(CC(N)=O)cc1)c1ccc(C(=O)N2CCOCC2)cc1 [Compound 274] | 
290000 | CCC[C@@H](NC(=O)N1C(=O)C(CC)(CC)[C@@H]1Oc1ccc(CC(=O)N(C)CCN(C)C)cc1)c1ccc(C(=O)N2CCOCC2)cc1 [Compound 275] | 
440000 | CCC[C@@H](NC(=O)N1C(=O)C(CC)(CC)[C@@H]1Oc1ccc(CC(=O)OC)cc1)c1ccc(C(=O)N2CCOCC2)cc1 [Compound 276] | 
548000 | CCC[C@@H](NC(=O)N1C(=O)C(CC)(CC)[C@@H]1Oc1ccc(C(=O)N(C)CCN(C)C)cc1)c1ccc(C(=O)N2CCOCC2)cc1 [Compound 277] | 
135000 | CCC[C@@H](NC(=O)N1C(=O)C(CC)(CC)[C@@H]1Oc1ccc(C(=O)OCCN(C)C)cc1)c1ccc(C(=O)N2CCOCC2)cc1 [Compound 278] | 

kinact/KI [M⁻¹ s⁻¹] | Structure (SMILES) | Kobs/[I] (second order rate constant for inactivation of the enzyme, pH 7.5)
566000 | CCC[C@@H](NC(=O)N1C(=O)C(CC)(CC)[C@@H]1Oc1ccc(C(=O)N(CC)CC)cc1)c1ccc(C(=O)N2CCOCC2)cc1 [Compound 279] | 
577000 | CCC[C@@H](NC(=O)N1C(=O)C(CC)(CC)[C@@H]1Oc1ccc(C(=O)N2CCOCC2)cc1)c1ccc(C(=O)N2CCOCC2)cc1 [Compound 280] | 
62000 | CCC[C@@H](NC(=O)N1C(=O)C(CC)(CC)[C@@H]1Oc1ccc(CC(=O)N2CCOCC2)cc1)c1ccc(C(=O)O)cc1 [Compound 281] | 
421000 | CCC[C@@H](NC(=O)N1C(=O)C(CC)(CC)[C@@H]1Oc1ccc(CC(=O)N2CCOCC2)cc1)c1ccc(C(=O)OCCN(C)C)cc1 [Compound 282] | 
393000 | CCC[C@@H](NC(=O)N1C(=O)C(CC)(CC)[C@@H]1Oc1ccc(CC(=O)N2CCOCC2)cc1)c1ccc(C(=O)N(C)CCN(C)C)cc1 [Compound 283] | 
 | CCC[C@@H](NC(=O)N1C(=O)C(CC)(CC)[C@@H]1Oc1ccc(CC(=O)N(C)CCN(C)C)cc1)c1ccc(OC)cc1 [Compound 285] | 566,000 per mole per second
551000 | CCC[C@@H](NC(=O)N1C(=O)C(CC)(CC)[C@@H]1Oc1ccc(C(=O)N(C)CCN(C)C)cc1)c1ccc(C(=O)N(C)C)cc1 [Compound 286] | 
113000 | CCC[C@@H](NC(=O)N1C(=O)C(CC)(CC)[C@@H]1Oc1ccc(C(=O)N(C)CCN(C)C)cc1)c1ccc(C(=O)O)cc1 [Compound 287] | 
854000 | CCC[C@@H](NC(=O)N1C(=O)C(CC)(CC)[C@@H]1Oc1ccc(C(=O)N(C)CCN(C)C)cc1)c1ccc(CO)cc1 [Compound 288] | 
1.01e+06 | CCC[C@@H](NC(=O)N1C(=O)C(CC)(CC)[C@@H]1Oc1ccc(C(=O)N(C)CCN(C)C)cc1)c1ccc(OC)cc1 [Compound 290] | 
1.75e+06 | CCC[C@@H](NC(=O)N1C(=O)C(CC)(CC)[C@@H]1Oc1ccc(C(=O)N(C)CCN(C)C)cc1)c1cccc(OC)c1 [Compound 291] | 
807000 | CCC[C@@H](NC(=O)N1C(=O)C(CC)(CC)[C@@H]1Oc1ccc(CC(=O)N2CCOCC2)cc1)c1ccc(C)c(COC(=O)N(CC)CC)c1 [Compound 292] | 
457000 | CCC[C@@H](NC(=O)N1C(=O)C(CC)(CC)[C@@H]1Oc1ccc(CC(=O)N(CC)CC)cc1)c1ccc(C)c(C(=O)N(CCC)CCC)c1 [Compound 293] | 
255000 | CCC[C@@H](NC(=O)N1C(=O)C(CC)(CC)[C@@H]1Oc1ccc(CC(=O)N2CCOCC2)cc1)c1ccc(C)c(C(=O)N(CCC)CCC)c1 [Compound 294] | 
846000 | CCC[C@@H](NC(=O)N1C(=O)C(CC)(CC)[C@@H]1Oc1ccc(C(=O)N(C)CCN(C)C)cc1)c1ccc(C#N)cc1 [Compound 295] | 
776000 | CCC[C@@H](NC(=O)N1C(=O)C(CC)(CC)[C@@H]1Oc1ccc(C(=O)N(C)CCN(C)Cc2ccccc2)cc1)c1ccc(OCC)cc1 [Compound 296] | 
1.84e+06 | CCC[C@@H](NC(=O)N1C(=O)C(CC)(CC)[C@@H]1Oc1ccc(C(=O)N2CCN(C)CC2)cc1)c1ccc(OC)cc1 [Compound 298] | 
1.48e+06 | CCC[C@@H](NC(=O)N1C(=O)C(CC)(CC)[C@@H]1Oc1ccc(C(=O)N(C)CCN(C)C)cc1)c1ccc(Cl)cc1 [Compound 299] | 
1.28e+06 | CCC[C@@H](NC(=O)N1C(=O)C(CC)(CC)[C@@H]1Oc1ccc(C(=O)N(C)CCN(CC)CC)cc1)c1ccc(Cl)cc1 [Compound 300] | 
1.5e+06 | CCC[C@@H](NC(=O)N1C(=O)C(CC)(CC)[C@@H]1Oc1ccc(C(=O)N(C)CCN(C(C)C)C(C)C)cc1)c1ccc(Cl)cc1 [Compound 301] | 
1.46e+06 | CCC[C@@H](NC(=O)N1C(=O)C(CC)(CC)[C@@H]1Oc1ccc(C(=O)N(C)CCN(C)Cc2ccccc2)cc1)c1ccc(Cl)cc1 [Compound 302] | 
749000 | CCC[C@@H](NC(=O)N1C(=O)C(CC)(CC)[C@@H]1Oc1cc(C)c(C(=O)OCCN(CC)CC)c(C)c1)c1ccc(C)cc1 [Compound 305, 2-(diethylamino)ethyl [S-(R*,S*)]-4-[[3,3-diethyl-1-[[[1-(4-methylphenyl)butyl]amino]carbonyl]-4-oxo-2-azetidinyl]oxy]-2,6-dimethyl-benzoate] | 

Structure (SMILES) | kinact/KI [M⁻¹ s⁻¹] | Kobs/[I] (second order rate constant for inactivation of the enzyme, pH 7.5)
CCC[C@@H](NC(=O)N1C(=O)C(CC)(CC)[C@@H]1Oc1ccc(CC(=O)N(C)CCN(C)C)cc1)c1ccc(O)cc1 [Compound 284] | 309000 | 
CCC[C@@H](NC(=O)N1C(=O)C(CC)(CC)[C@@H]1Oc1ccc(CC(=O)N(C)CCN(C)C)cc1)c1ccc(OC)cc1 [Compound 289] | 754000 | 
